Assay results from patent US20260258003A1, “SLACK-ACTIVATING COMPOUNDS AND THEIR MEDICAL USE” (Johann Wolfgang Goethe-Universität Frankfurt am Main, priority 2023, published 2026).
Each block holds one compound with its values, some of them ahead of it.

Experiments:
[1] = test system: DNFB-induced persistent itch behavior of mice; test: DNFB model of persistent itch (allergic contact dermatitis); assay type: in vivo; conditions: i.p. after the second DNFB exposure, vs vehicle
Procedure: Furthermore, the effect of Compound 6 in chronic itch was examined in a model of allergic contact dermatitis^31. In brief, the fur on the dorsolateral aspect of the neck was shaved under brief isoflurane anesthesia. Three to four days thereafter, the shaved skin area was painted with 100 μL of 0.15% 2,4-dinitrofluorobenzene (DNFB) in acetone/olive oil (3:1). After 10-11 days, the skin was shaved again and the DNFB solution was painted 3-4 days thereafter (i.e., two painting sessions 14 days apart). Ninety minutes after the second painting, mice were habituated for 15 min in separate plexiglass cylinders (30 cm diameter).
Compounds or vehicle (10% 2-hydroxypropyl-β-cyclodextrine in 0.9% saline) were i.p. administered, and 15 min thereafter spontaneous scratching was recorded over 30 min by videotaping (FIG. 10A).

IB4-binding DRG neurons = test: Whole-cell current-clamp recordings on IB4-binding DRG neurons; assay type: cell-based, mice; conditions: 50 μM
Procedure: A DRG neuron primary cell culture was prepared and stimulated with an inflammatory soup overnight to induce hyperexcitability. In brief, naïve C57BL/6N mice (age 4-8 weeks) were killed by CO2 inhalation and lumbar (L1-L5) DRGs were transferred to hanks' balanced salt solution (Gibco, Thermo Fisher Scientific). After incubation with 500 U/mL collagenase IV and 2.5 U/ml dispase II (both from Sigma Aldrich) for 60 min, including carefully shaking every 20 min, DRGs were washed and gently triturated twice with a fire-polished Pasteur pipette in neurobasal medium (Gibco, Thermo Fisher Scientific) including 10% FBS and 0.5 mM GlutMax (Gibco, Thermo Fisher Scientific). Dissociated DRGs were seeded onto poly-D-lysine-coated (100 μg/mL) coverslips and cultured in neurobasal medium supplemented with 2% B27 (Gibco, Thermo Fisher Scientific), 1% penicillin/streptomycin and 0.5 mM GlutMax in 5% CO2 at 37° C.
In order to simulate a pathological state, DRG neuronal cultures were incubated with an inflammatory soup (histamine: 10 μM, PGE2: 10 μM, serotonin: 10 μM, bradykinin: 10 μM)^33 overnight and performed recordings on cells that bind isolectin B4, a marker of nonpeptidergic C-fiber neurons including the itch-sensitive neuronal populations (NP1-NP3)^4 in mice. Before recording, DRG neurons were preincubated with 10 μg/mL FITC-conjugated IB4 (Sigma-Aldrich) for 5-10 min to select for Slack-expressing neurons.
Whole-cell current clamp recordings were obtained using an EPC 9 amplifier combined with Patchmaster software (HEKA Electronics, Lambrecht/Pfalz, Germany). General settings, pipette and extracellular solutions were used as described above. Evoked action potentials (AP) were elicited by 10 ms current injections starting at 0 pA in 20 pA increments to determine electrophysiological parameters. Action potential (AP) firing was induced by depolarizing current pulses (200-950 pA at 150 pA intervals, 1000 ms duration). […] Number of APs before and after compound application were counted at the same current injection step.

[2] = test system: histamine-induced scratching of mice; test: Histamine-induced acute itch model; assay type: in vivo; conditions: i.p.
Procedure: Further studies were conducted to assess the in vivo efficacy of Compound 6 and Compound 10 in mice. In detail, experiments were performed in 8 to 16 weeks old C57BL/6N mice (Charles River, Sulzfeld, Germany) and animals with a genetic deletion of Slack (Slack^−/− mice^27) of either sex. Animals were housed on a 12 h light/dark cycle with access to food and water ad libitum. All experiments adhered to the guidelines of the International Association for the Study of Pain and to the ARRIVE (Animal Research: Reporting on In Vivo Experiments) guidelines, and were approved by and conducted in accordance with the regulations of the local Animal Welfare authorities (Regierungspräsidium Darmstadt, Germany). All behavioral studies were conducted during the light cycle of the day at room temperature (20-24° C.) by an observer blinded for the treatment of the animals and/or their genotype.
Acute itch behavior of the mice was monitored using a histamine-based, chloroquine-based and SLIGRL-based acute itch behavior model. In these models, three to four days before the experiment day, the fur on the dorsolateral aspect of the neck was shaved under brief isoflurane anesthesia. On the testing day, mice were habituated for 30 min in separate plexiglass cylinders (30 cm diameter). […] Numbers of scratching bouts directed to the nape of the neck were assessed over 30 min by videotaping.

[3] = Microsomal stability assay in liver microsomes; assay type: in vitro ADME, Sprague-Dawley rats; conditions: 10 μM, rat liver microsomes
Procedure: For Compound 10, the metabolic stability in liver microsomes as shown in Table 4 was determined by the following assay. The test compound was dissolved in DMSO (1 mM). The solubilized test compound (5 μL, final concentration 10 μM) was preincubated at 37° C. in 432 μL of phosphate buffer (0.1 M, pH=7.4) together with 50 μL of NADPH regenerating system (30 mM glucose-6-phosphate, 4 U/mL glucose 6-phosphate dehydrogenase, 10 mM NADP, 30 mM MgCl2). After 5 min, the reaction was started by the addition of 13 μL of microsome mix from the liver of Sprague-Dawley rats (Invitrogen; 20 mg protein/mL in 0.1 M phosphate buffer) in a shaking water bath at 37° C. The reaction was stopped by adding 500 μL of ice-cold methanol at 0, 15, 30, and 60 min. The samples were centrifuged at 5000×g for 5 min at 4° C., and the test compound was quantified from the supernatants by HPLC: the composition of the mobile phase was adapted to the test compound in a range of MeOH 40-90% and water (0.1% formic acid) 10-60%. Flow rate: 1 mL/min; stationary phase: Purospher STAR, RP18, 5 μm, 125×4; precolumn: Purospher STAR, RP18, 5 μm, 4×4; detection wavelength: 254 and 280 nm; injection volume: 50 μL. Control samples were performed to check the test compound's stability in the reaction mixture. First control was without NADPH, which is needed for the enzymatic activity of the microsomes, second control was with inactivated microsomes (incubated for 20 min at 90° C.), and third control was without the test compound (to determine the baseline). The amounts of the test compound were quantified by an external calibration curve. Data are expressed as the mean±SEM remaining compound from three independent experiments. In vitro half-life was calculated by a logarithmic-linear transformation of the remaining amounts of nonmetabolized test compound versus time.

Na+ channel = test: SafetyScreen44 binding; set-up: species or system rat; conditions: 10 μM; substantial = higher than 50%
[4] = injection of small currents (0-220 pA)

Compound: O=C(O)COCCN1CCN(C2=Nc3ccccc3Oc3ccc(Cl)cc32)CC1 [Compound 6, 2-(2-(4-(2-Chlorodibenzo[b,f][1,4]oxazepin-11-yl)piperazin-1-yl)ethoxy) acetic acid]
number of head shakes, DNFB model [1]: significantly inhibited
number of scratching bouts, DNFB model [1]: significantly inhibited
number of AP fired (IB4-binding DRG neurons; current injections 200-950 pA, inflammatory soup overnight): profound decrease
AP amplitude (IB4-binding DRG neurons; [4]): significantly lower
rheobase (IB4-binding DRG neurons; [4]): significantly increased
scratching evoked by s.c. histamine [2]: not affected

Metabolic stability (remaining compound) ([3]; 15 min): 55%
Metabolic stability (remaining compound) ([3]; 30 min): 35%
Metabolic stability (remaining compound) ([3]; 60 min): 16%
Compound: O=c1nc(CN2CCN(C3=Nc4ccccc4Oc4ccc(Cl)cc43)CC2)[nH][nH]1 [Compound 10, 5-((4-(2-Chlorodibenzo[b,f][1,4]oxazepin-11-yl)piperazin-1-yl)methyl)-1,2-dihydro-3H-1,2,4-triazol-3-one]

Compound: CN1CCN(C2=Nc3ccccc3Oc3ccc(Cl)cc32)CC1 [Loxapine, 2-chloro-11-(4-methylpiperazin-1-yl)dibenzo[b,f][1,4]oxazepine, reference compound]
binding inhibition, Na+ channel (Na+ channel): higher than 50%
